Results: ChEMBL document CHEMBL1158562, “Design, synthesis and structure-activity relationships of novel biarylamine-based Met kinase inhibitors” (Bioorg Med Chem Lett, 2010)
The source made the active and inactive calls. The calls are words filed in the database; no cut-off is given here.

Key:
[1] = Antiproliferative activity against human GTL16 cells after 72 hrs by tetrazolium-based colorimetric assay; settings: GTL 16, 72 h
[2] = Inhibition of CDK2E
[3] = AUC (0 to 8 hrs) in mouse at 50 mg/kg, po; type: ADME, organism-based; set-up: time < 8 hr, dose 50 mg/kg, route oral; settings: plasma
[4] = test system: GTL 16; assay: Antitumor activity against human GTL16 cells xenografted in anthymic mouse assessed as complete tumor stasis at 25 mg/kg, po qd for 15 days; type: functional, organism-based; set-up: dose 25 mg/kg
[5] = test system: GTL 16; assay: Antitumor activity against human GTL16 cells xenografted in anthymic mouse administered po qd for 15 days; type: functional, organism-based
[6] = target: Protein kinase C alpha type (Homo sapiens, UniProt P17252); assay: Inhibition of PKCalpha
[7] = target: Insulin receptor (Homo sapiens, UniProt P06213); assay: Inhibition of InsR
Insulin receptor, sequence (P06213 28-758 limits assumed): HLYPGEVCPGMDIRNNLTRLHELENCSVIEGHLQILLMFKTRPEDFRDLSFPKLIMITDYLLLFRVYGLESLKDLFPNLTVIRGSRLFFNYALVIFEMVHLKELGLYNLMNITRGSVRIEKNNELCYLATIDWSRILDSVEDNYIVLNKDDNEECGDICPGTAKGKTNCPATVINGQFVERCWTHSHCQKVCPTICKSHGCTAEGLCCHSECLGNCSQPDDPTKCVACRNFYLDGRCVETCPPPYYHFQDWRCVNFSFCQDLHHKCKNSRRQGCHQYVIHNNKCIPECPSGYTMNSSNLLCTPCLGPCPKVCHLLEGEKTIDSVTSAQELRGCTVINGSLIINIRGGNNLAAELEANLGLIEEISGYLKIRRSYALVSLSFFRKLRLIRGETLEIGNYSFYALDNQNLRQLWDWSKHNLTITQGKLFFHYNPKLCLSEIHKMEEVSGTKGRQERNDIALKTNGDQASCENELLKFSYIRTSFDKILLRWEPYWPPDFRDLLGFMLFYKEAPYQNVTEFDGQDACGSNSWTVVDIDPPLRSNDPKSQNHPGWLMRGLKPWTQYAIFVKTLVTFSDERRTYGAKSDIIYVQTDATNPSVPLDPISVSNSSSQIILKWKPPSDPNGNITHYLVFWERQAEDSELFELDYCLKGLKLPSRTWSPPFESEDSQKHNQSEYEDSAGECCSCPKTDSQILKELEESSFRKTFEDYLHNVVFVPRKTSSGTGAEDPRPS
Insulin receptor, sequence (P06213 763-1382 limits assumed): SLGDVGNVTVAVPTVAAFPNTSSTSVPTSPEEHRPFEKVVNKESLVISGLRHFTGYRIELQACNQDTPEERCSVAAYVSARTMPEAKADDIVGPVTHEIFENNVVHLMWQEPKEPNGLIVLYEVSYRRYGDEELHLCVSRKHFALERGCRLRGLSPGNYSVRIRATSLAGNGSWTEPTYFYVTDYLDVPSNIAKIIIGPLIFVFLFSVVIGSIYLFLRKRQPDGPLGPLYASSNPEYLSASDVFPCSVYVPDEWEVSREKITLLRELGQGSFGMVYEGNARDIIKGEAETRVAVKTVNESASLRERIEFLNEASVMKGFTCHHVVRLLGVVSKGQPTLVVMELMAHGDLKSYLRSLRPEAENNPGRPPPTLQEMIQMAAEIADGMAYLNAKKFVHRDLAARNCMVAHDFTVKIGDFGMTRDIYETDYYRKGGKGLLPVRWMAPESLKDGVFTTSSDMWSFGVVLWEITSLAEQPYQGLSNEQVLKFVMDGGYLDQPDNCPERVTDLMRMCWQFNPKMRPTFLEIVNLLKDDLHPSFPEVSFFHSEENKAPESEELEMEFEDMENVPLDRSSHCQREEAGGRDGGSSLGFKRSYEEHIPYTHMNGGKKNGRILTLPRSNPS

[8] = target: Tyrosine-protein kinase Lck (Homo sapiens, UniProt P06239); assay: Inhibition of LcK
Tyrosine-protein kinase Lck, sequence (P06239 whole entry, the tested form may be a part): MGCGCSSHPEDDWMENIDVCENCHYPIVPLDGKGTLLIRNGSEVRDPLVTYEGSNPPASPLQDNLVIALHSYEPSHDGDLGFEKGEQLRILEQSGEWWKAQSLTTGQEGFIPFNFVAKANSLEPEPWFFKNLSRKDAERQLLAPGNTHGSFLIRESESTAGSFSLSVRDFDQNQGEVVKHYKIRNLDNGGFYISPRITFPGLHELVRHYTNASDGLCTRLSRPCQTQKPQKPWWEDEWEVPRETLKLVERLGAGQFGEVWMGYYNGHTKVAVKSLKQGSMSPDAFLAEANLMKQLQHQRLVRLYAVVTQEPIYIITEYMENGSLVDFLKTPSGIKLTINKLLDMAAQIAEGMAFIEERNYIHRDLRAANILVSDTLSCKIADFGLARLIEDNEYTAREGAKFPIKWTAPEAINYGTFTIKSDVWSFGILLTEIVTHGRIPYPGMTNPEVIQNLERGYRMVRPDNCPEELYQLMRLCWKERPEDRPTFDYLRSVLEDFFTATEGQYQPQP

[9] = target: Hepatocyte growth factor receptor (Homo sapiens, UniProt P08581); assay: Inhibition of GST-tagged human recombinant c-met N terminal domain expressed in Hi5 insect cells after 60 mins by liquid scintillation counting
[10] = target: T1, Receptor-type tyrosine-protein kinase FLT3 (Homo sapiens, UniProt P36888); assay: Inhibition of FLT3
T1 sequence (P36888 whole entry): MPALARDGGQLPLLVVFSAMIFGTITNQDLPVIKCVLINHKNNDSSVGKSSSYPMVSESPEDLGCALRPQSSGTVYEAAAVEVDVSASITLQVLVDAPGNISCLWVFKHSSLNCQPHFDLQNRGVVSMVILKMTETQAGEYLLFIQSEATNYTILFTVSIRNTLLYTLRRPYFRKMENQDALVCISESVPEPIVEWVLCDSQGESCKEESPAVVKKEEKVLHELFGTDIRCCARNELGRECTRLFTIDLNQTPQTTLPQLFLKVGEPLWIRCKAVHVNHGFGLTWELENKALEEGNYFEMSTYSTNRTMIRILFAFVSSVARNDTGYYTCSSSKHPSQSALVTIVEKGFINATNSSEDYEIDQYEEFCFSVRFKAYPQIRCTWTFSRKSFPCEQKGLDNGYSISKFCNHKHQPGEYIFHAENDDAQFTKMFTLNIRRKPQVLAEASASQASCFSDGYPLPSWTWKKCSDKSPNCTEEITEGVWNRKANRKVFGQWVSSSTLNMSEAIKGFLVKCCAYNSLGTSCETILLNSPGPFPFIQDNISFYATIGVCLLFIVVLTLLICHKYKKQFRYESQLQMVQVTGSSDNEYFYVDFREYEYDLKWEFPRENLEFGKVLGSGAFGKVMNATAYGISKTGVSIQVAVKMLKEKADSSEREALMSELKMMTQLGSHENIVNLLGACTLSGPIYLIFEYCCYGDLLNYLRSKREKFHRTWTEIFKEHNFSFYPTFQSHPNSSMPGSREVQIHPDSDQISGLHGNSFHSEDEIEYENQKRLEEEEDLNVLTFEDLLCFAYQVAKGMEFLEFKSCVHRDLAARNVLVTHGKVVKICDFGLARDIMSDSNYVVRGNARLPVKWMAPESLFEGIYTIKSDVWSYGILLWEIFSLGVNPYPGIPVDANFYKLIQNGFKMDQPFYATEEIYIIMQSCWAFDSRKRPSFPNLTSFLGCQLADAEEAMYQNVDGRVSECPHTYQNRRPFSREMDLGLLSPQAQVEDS

[11] = target: MAP kinase-activated protein kinase 2 (Homo sapiens, UniProt P49137); assay: Inhibition of MK2
MAP kinase-activated protein kinase 2, sequence (P49137 whole entry): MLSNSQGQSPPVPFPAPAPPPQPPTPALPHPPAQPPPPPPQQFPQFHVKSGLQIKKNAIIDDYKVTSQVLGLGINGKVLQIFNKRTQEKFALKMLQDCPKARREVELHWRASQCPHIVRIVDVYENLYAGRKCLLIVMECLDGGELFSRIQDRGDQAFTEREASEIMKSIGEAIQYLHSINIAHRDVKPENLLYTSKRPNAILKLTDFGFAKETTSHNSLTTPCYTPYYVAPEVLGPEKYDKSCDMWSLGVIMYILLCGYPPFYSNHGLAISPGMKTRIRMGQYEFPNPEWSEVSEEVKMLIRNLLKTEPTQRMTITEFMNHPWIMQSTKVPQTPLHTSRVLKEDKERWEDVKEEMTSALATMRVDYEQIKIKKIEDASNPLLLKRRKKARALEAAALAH

[12] = Cmax in mouse at 50 mg/kg, po for 8 hrs; type: ADME, organism-based; set-up: dose 50 mg/kg, route oral; settings: in vivo
[13] = target: High affinity nerve growth factor receptor (Homo sapiens, UniProt P04629); assay: Inhibition of TrkA
High affinity nerve growth factor receptor, sequence (P04629 whole entry): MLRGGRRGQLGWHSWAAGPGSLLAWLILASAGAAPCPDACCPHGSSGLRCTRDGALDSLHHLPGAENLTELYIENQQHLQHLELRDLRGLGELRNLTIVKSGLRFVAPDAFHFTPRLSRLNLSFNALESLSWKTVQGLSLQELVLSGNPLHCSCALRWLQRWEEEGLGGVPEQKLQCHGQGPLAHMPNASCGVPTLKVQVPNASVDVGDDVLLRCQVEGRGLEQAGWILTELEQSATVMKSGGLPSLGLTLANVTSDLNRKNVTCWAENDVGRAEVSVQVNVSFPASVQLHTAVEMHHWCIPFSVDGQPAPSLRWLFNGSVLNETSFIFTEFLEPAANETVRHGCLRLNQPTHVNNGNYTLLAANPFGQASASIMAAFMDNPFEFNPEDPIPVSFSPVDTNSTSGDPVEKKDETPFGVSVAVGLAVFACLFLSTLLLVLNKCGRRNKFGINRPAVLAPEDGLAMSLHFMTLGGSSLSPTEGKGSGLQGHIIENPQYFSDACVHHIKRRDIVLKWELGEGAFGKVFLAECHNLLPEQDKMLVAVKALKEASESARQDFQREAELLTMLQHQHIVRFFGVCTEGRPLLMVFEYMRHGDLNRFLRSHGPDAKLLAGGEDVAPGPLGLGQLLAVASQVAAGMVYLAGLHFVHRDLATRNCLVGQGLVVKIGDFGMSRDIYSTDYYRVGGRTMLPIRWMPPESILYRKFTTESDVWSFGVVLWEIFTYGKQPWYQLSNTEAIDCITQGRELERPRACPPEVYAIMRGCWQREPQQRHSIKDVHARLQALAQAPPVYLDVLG

Nc1cc(Oc2ccc(Nc3nccnc3C(=O)Nc3ccc(F)cc3F)cc2F)ccn1
IC50 [1]: 2.73 µM

O=C(Nc1ccc(F)cc1F)c1cc(Br)cnc1Nc1ccc(Oc2ccnc3[nH]ccc23)c(F)c1
IC50 [1]: 0.64 µM

O=C(Nc1ccc(F)cc1F)c1nccnc1Nc1ccc(Oc2ccnc3[nH]ccc23)c(F)c1
IC50 [1]: 7.15 µM

O=C(Nc1ccccc1CCO)c1cccnc1Nc1ccc(Oc2ccnc3[nH]ccc23)c(F)c1
IC50 [1]: 0.4 µM

Nc1cc(Oc2ccc(Nc3ncccc3C(=O)Nc3ccc(F)cc3F)cc2F)ccn1
IC50 [1]: 0.9 µM

O=C(Nc1ccc(F)cn1)c1cccnc1Nc1ccc(Oc2ccnc3[nH]ccc23)c(F)c1
IC50 [1]: 0.27 µM

CN(C(=O)c1cccnc1Nc1ccc(Oc2ccnc3[nH]ccc23)c(F)c1)c1ccc(F)cc1
IC50 [1]: 5.58 µM

Nc1cc(Oc2ccc(Nc3ncncc3C(=O)Nc3ccc(F)cc3F)cc2F)ccn1
IC50 [1]: 1.93 µM

Nc1cc(Oc2ccc(Nc3ncc(Br)cc3C(=O)Nc3ccc(F)cc3F)cc2F)ccn1
IC50 [1]: 0.59 µM

O=C(Nc1ccc(F)cc1F)c1cccnc1Nc1ccc(Oc2ccnc3[nH]ccc23)c(F)c1
IC50 [2]: > 50 µM | AUC(0-t) at 8 h [3]: 42 µM·h | Activity [4]: Active | Activity [5]: Dose-dependent effect | IC50 [6]: > 50 µM | IC50 [7]: > 50 µM | IC50 [1]: 0.21 µM | IC50 [8]: > 50 µM | IC50 [9]: 0.007 µM | IC50 [10]: 0.12 µM | IC50 [11]: > 50 µM | Cmax [12]: 9.3 µM | IC50 [13]: 0.35 µM

O=C(Nc1ccccc1Cl)c1cccnc1Nc1ccc(Oc2ccnc3[nH]ccc23)c(F)c1
IC50 [1]: 1.2 µM

O=C(Nc1ccc(F)cc1F)c1cnccc1Nc1ccc(Oc2ccnc3[nH]ccc23)c(F)c1
IC50 [1]: > 10 µM

O=C(Nc1ccccc1)c1cccnc1Nc1ccc(Oc2ccnc3[nH]ccc23)c(F)c1
IC50 [1]: 0.46 µM

Cc1ccccc1NC(=O)c1cccnc1Nc1ccc(Oc2ccnc3[nH]ccc23)c(F)c1
IC50 [1]: 0.42 µM

CSc1ncc(C(=O)Nc2ccc(F)cc2F)c(Nc2ccc(Oc3ccnc(N)c3)c(F)c2)n1
IC50 [1]: 0.44 µM

CN(C)c1ncc(C(=O)Nc2ccc(F)cc2F)c(Nc2ccc(Oc3ccnc(N)c3)c(F)c2)n1
IC50 [1]: > 10 µM

Nc1cc(Oc2ccc(Nc3ncccc3C(=O)Nc3ccc(Cl)cc3)cc2F)ccn1
IC50 [1]: 1.16 µM

Cc1ccc(C(=O)Nc2ccc(F)cc2F)c(Nc2ccc(Oc3ccnc4[nH]ccc34)c(F)c2)n1
IC50 [1]: 2.4 µM
